Results on two compounds are retold here after patent US5561161A, “Methods of administering and pharmaceutical formulations containing n-substituted benzamides and/or acid addition salts thereof” (priority 1994, dated 1996).

The conditions of data set [1]: cited from earlier work.
For data set [2], the system named is human lung adenocarcinoma (H-2981). The data set can be described thus: Radiosensitization of human lung adenocarcinoma xenografts in Scid mice. The settings on record: 2 mg/kg i.m., -1 or -2 hours to 1 Gy; hydrochloride.
Description: Tumor tissue suspensions were prepared and inoculated subcutaneously into the midback region of 3-5 week old Scid mice so that 10 mm×10 mm tumors were grown in about 25 days. […] The tumor volumes were measured and recorded every 2-3 days and analyzed by a t-test at day 17 after inoculation.
For data set [3], the system named is 5-hydroxytryptamine3 (5-HT3) receptor. As to conditions: cited from earlier work.
A further data set relates to human cancer patients. The settings on record: intravenous, cisplatin chemotherapy; cited from earlier work.
The subject of another data set is dopamine2 (D2) receptor. As to conditions: cited from earlier work.

Each structure is given as a SMILES string. Entries after “also recorded” stand apart in the source; their conditions may differ. Where a name gives a salt, the structure may show the parent alone. Read-outs that look alike come from different tables or passages of the source.

In the case of `CCN(CC)CCNC(=O)c1cc(Cl)c(N)cc1OC` [metoclopramide hydrochloride], the “solubility in water / aqueous vehicles” value in data set [1] (hydrochloride) is “freely soluble in water”. In addition, the “radiosensitization, effect of pH (acidic vs neutral form)” value in data set [2] is reported as “not altered; also recorded: Lack of any measurable difference”.

As for `CCN(CC)CCNC(=O)c1cc(Cl)c(N)cc1OC` [metoclopramide], the “solubility in water / aqueous vehicles” value in data set [1] was “quite insoluble in water”. Also, in data set [3], the “binding to 5-HT3 receptor” value is “known to bind”. The inhibition of emesis entry in the data set with human cancer patients is on record as “can inhibit the biological response of emesis”. In addition, in the data set on dopamine2 (D2) receptor, the “binding to D2 receptor” value is “known to bind” and the “sodium ion dependence of D2 receptor binding” value is recorded as “sodium ion dependent”.
